The record followed here is patent publication US10856563B2, “N-acyl-amino acid derivatives for improvement of the flavor profile of edible compositions” (Givaudan S.A., priority 2012, dated 2020).

Each structure is given as a SMILES string.

A short description of test [1]: Test on Tang (high intensity sweetener HIS masking), evaluation by expert tasters. To be noted: versus base. On the procedure:
In an orange flavoured Tang powdered soft drink (market product) sweetened with sucrose plus high intensity sweetener (aspartame and acesulfame-K) and containing citric acid, C18:2-gaba and C18:2-pro were tested.
All samples were evaluated by expert tasters. Tasters were asked to describe the samples focusing on authentic taste, masking off notes of high intensity sweetener, mouthfeel & body, enhancement, richness, juiciness, long lastingness, salivation, sweetness
Base is Orange flavoured Tang
Base: sweet, orange, licorice, and lingering high intensity sweetener off-notes, bitter, thin

The nature of test [2]: Test on soy milk (soy protein masking), evaluation by expert tasters. To be noted: 2 ppm in soy milk (1.8% fat), 5% sucrose, milk flavour 0.1%. Here is the method:
In a soy milk (1.8% fat) sweetened with 5% sucrose by weight, flavoured with a proprietary milk flavour at a dosage of 0.1%, C18:2-gaba was added at 2 ppm
Samples were evaluated by expert tasters. Tasters were asked to describe the samples focusing on authentic taste, masking of soy protein off notes, mouthfeel, fullness, salivation, sweetness, richness, long lastingness and fattiness.
Soy milk, 5% sucrose, milk flavor @ 0.1%: sweet, dry, green, soy bean taste

Test [3] is described as follows: Test on liquid margarine (KCL masking), evaluation by expert tasters. As to conditions: 2 ppm in Blueband liquid margarine, 0.8% KCL, proprietary masking flavour 0.01%. Here is the method: In Blueband liquid margarine (market product) with added KCL 0.8% and a proprietary masking flavour @ 0.01% 18:2 gaba was added at 2 ppm.
Samples were evaluated by expert tasters. Tasters were asked to describe the samples focusing on authentic taste, masking of KCL off notes, mouthfeel, saltiness, fullness, salivation, long lastingness and fattiness.
Base is Blueband, 0.8% KCL, proprietary masking @ 0.01%
Base: metallic, buttery, bitter and soapy

Consider `CCCCC/C=C\C/C=C\CCCCCCCC(=O)N1CCC[C@H]1C(=O)O` [C18:2-Pro, N-linoleoyl-Pro], for which, in test [1] (1 ppm in orange flavoured Tang (sucrose, aspartame, acesulfame-K, citric acid)), the “masking off notes of high intensity sweetener” value is given as “the off-notes of the high intensity sweetener were suppressed”. The “taste description (enhancement, juiciness, authentic taste)” value in test [1] (1 ppm in orange flavoured Tang) is recorded as “the fresh, sweet juicy orange notes are enhanced, characteristic of authentic fresh orange fruit”.

As for `CCCCC/C=C\C/C=C\CCCCCCCC(=O)NCCCC(=O)O` [C18:2-gaba], in test [2], the “masking of soy protein off notes” value was “good reduction of the undesirable soy bean off-taste”; the “taste description (richness, mouthfeel, fattiness)” value is “clean, rich, creamy and milky”. For the same compound, the “masking off notes of high intensity sweetener” value in test [1] (0.5 ppm in orange flavoured Tang (sucrose, aspartame, acesulfame-K, citric acid)) was “the off-notes of the high intensity sweetener were suppressed”. In addition, the “taste description (enhancement, juiciness, mouthfeel)” value in test [1] (0.5 ppm in orange flavoured Tang) was “the sweet juicy orange notes and mouthfeel are enhanced”. In test [3], the authentic taste result is given as “more authentic butter”; the “masking of KCL off notes” value is “less metallic and bitter notes”; the saltiness and mouthfeel result is “more saltiness, more mouthfeel”.
